Test results as given in US12397059B2, “Compounds and methods for the treatment and prevention of fibrotic disease states and cancer” (Purdue Research Foundation, priority 2019, dated 2025).

What was measured:
[1] = test system: THP-1 cells polarized to M2-like macrophages; test: Reprogramming of M2-like THP-1 macrophages, marker gene analysis by qPCR; type: cell-based, human; conditions: M2-induced THP-1, 2 hours, qPCR
Description: THP-1 cells were seeded into 96-well plates at a density of 60,000 cells/well. Cells were differentiated into unpolarized macrophages by 48 hours incubation with 200 nM PMA followed by 24 hours incubation in fresh RPMI medium. […] Cultures were maintained at 37° C. in a humidified 5% CO2 incubator.
Total RNA was isolated from 1×10^5 —2×10^5 macrophages using a Quick-RNA™ MicroPrep kit (Zymo Research, Irvine, CA) according to the manufacturer-recommended protocol. […] IL-6, CXCL10, IFNα, IFN-γ and CD86 were used as markers for an M1 phenotype, while CCL18, CD206, CD163 and Arg1 were employed as markers for the M2 phenotype. IL-1β, PDGFβ, MMP9 and TIMP 3 were measured as indicators of a profibrotic phenotype. IRAK-4 was used as an indicator of TLR7 stimulation. To control for specificity of the amplification products, a melting curve analysis was performed. […] Each sample was analyzed independently in triplicate for each marker.
Primarily, human monocytic (THP-1) cells were induced to the M2-like phenotype using the methods and materials previously described. In particular, THP-1 cells were seeded into 96-well plates at a density of 60,000 cells/well. Cells were differentiated into unpolarized macrophages by 48 h incubation with 200 nM PMA followed by 24 hours incubation in fresh RPMI medium. The resulting macrophages were polarized to an M2-like phenotype by incubation with 20 ng/ml IL-4, 20 ng/ml IL-13, and 5 ng/mL IL-6 for 48 h. Cultures were maintained at 37° C. in a humidified 5% CO2 incubator.
In addition to the nonconjugated TLR7 agonist, conjugated compounds of the present disclosure were likewise evaluated. […] The cells were subsequently harvested for gene analysis by qPCR and the relative expression of CCL18 (FIG. 14A), CD206 (FIG. 14B), and IL-1β (FIG. 14C) analyzed.

[2] = test system: BM-induced experimental pulmonary fibrosis in mice; conditions: mouse, in vivo
Description: Studies were also performed to determine if macrophages in pulmonary fibrotic lungs might be specifically targeted with folate-linked drugs in vivo. […] (The BM model is widely regarded to be helpful in terms of enabling mechanistic investigations relevant to fibrogenesis in an in vivo context.)
More specifically, eight-week-old C57BL6 male mice from Charles River (average weight 22 g to 25 g) were housed under pathogen-free conditions at room temperature (22° C.) under a 12 hours light-dark cycle. Mice were placed on a folate deficient chow (Envigo Teklad Global Rat Food Pellets) for 1 week prior to the BM or PBS instillation. Fresh water and folate-deficient diet were freely available. All animal procedures were approved by the Purdue Animal Care and Use Committee in accordance with National Institute of Health guidelines.
Thereafter, the mice were anesthetized with ketamine/xylazine and the necks of the mice were shaved using hair remover lotion and then sterilized with 70% alcohol. A small incision was made on the neck to visualize the trachea. Mice were positioned at a 75-degree angle and injected intratracheally with 100 μL sterile PBS or BM (Cayman Chemicals, Ann Arbor, MI; #13877) dissolved in PBS (0.75 mg/kg) using a 1 cc syringe with 26 G needle. Body weights were monitored every other day throughout the experiment.
Lobes of the right lung collected above were weighed, placed in a pressure-tight vial (Supelco Inc., Bellefonte, PA; #27003), and hydrolyzed with 6N HCl (10 ml/g, v/w) in a sand bath at 120° C. for 3.5 hours. The hydrolyzed solution was cooled at 4° C. for 15 min and transferred to a 1.5 ml Eppendorf tube prior to centrifugation at 12,000 rcf for 15 min at 4° C. Supernatant was carefully collected, aliquoted and used for hydroxyproline (HYP) analysis.
For the subsequent HYP analysis, 10 μl of sample was transferred into a 96-well plate and neutralized with 10 μl of 5.3 M sodium hydroxide solution. Isopropanol (40 μl) was then added to each well followed by 20 μl of oxidation buffer and the mixture was incubated on a shaker at room temperature for 5 min. Analytical reagent (260 μl) was added, and the plate was incubated on a shaker at room temperature for 30 seconds and incubated immediately at 60° C. for 25 min. The absorbance was measured at 560 nm (A560) within 15 min. All reagents were prepared according to a previously reported protocol.
For histological analysis of the lung sections, fixed lungs (see above) were embedded in paraffin, sectioned and stained with hematoxylin-eosin (H&E), Masson's trichrome or F3 (anti-mouse FRβ antibody). Tissue sections were examined in a blinded manner by a licensed pathologist. More than 90×10^6 cells were quantified per section using Aperio-Image Scope (Leica Biosystems, Wetzlar, DE).
For this, BM-treated mice were intravenously injected every other day beginning on day 10 with either vehicle (3% DMSO in PBS) or Compound 1B (see FIG. 8A). […] In BM-induced experimental pulmonary fibrosis in mice, inflammation is known to persist for about 9-10 days after BM installation. Because, inflammation to fibrosis switch happens in this model approximately day 9 to day 14, and profibrotic markers start appearing at about day 10, dosing began on day 10 (FIG. 8A).
Two doses were given every other day till day 21. The individual doses on a day are separated by 6 hours to prevent any “tolerance” to TLR agonists. Mice were then sacrificed on day 21 and subjected immediately to bronchoalveolar lavage followed by resection of the lungs for immunohistochemistry and quantitation of collagen and hydroxyproline.

[3] = test system: M2-induced THP-1 macrophages; test: Secreted CCL18 and IL-1β in THP-1 supernatants by ELISA; type: cell-based, human; conditions: THP-1 cells of FIGS. 14A-14C, low concentration range (0.1-10 nM)
[4] = biological target: T1, FRβ (Mus musculus, UniProt Q05685); conditions: in vivo
T1 construct: from tissue; host or cells: major organs (heart, lung, spleen, liver, small intestine, large intestine, kidney) of bleomycin- or PBS-treated C57BL/6 mice; FRβ-expressing lung macrophages
T1 sequence (Q05685 21-227): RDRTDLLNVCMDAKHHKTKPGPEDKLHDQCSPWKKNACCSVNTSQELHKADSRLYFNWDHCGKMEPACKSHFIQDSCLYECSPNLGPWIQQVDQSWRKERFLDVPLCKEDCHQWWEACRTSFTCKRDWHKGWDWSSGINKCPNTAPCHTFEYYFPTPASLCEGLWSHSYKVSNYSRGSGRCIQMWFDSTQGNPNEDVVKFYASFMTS
Description: FIGS. 7C and 7D show FRβ IHC staining of human IPF lung tissue (FIG. 7C) and healthy human lung tissue (FIG. 7D). […] After 2 hours, mice were sacrificed prior to analysis.

[5] = test system: FRβ positive macrophages; conditions: mouse, in vivo
Description: To evaluate if profibrotic lung macrophages in these mice can be specifically targeted with folate-linked drugs, 10 days after the instillation, 10 nmol (for in vivo imaging) or 100 nmol (for in vivo labeling) of a folate-linked, near infrared fluorescent dye (OTL38) with or without 200-fold excess of FA-glucosamine (a competitor of OTL38) was injected into the tail veins of BM-treated mice and the dye uptake in the major organs was evaluated.
Finally, for the in vivo folate imaging studies, major organs (heart, lung, spleen, liver, small intestine, large intestine, and kidney) were resected and imaged using an AMI live imager (Spectral Instruments Imaging, Tucson, AZ). For in vivo folate receptor labeling studies, lungs of the mice were harvested immediately following euthanasia, digested with a lung dissociation kit (Miltenyi Biotec, Bergisch Gladbach, DE; #130-098-427) as described by gentleMACS Octo Dissociator with Heathers (Miltenyi Biotec, Bergisch Gladbach, DE; #130-096-427) as described by manual and filtered through a 70 μm cell strainer (Miltenyi Biotec, Bergisch Gladbach, DE; #130-098-462). […] Labeled macrophages were then washed twice in PBS, stained with 7AAD (viability stain) for 15 min and analyzed by flow cytometry using BD Accuri C6 Software (BD Biosciences, San Jose, CA). […]

Molecule | CCL18 relative expression [1] | CD206 relative expression [1] | IL-1β relative expression [1] | effectiveness in reducing profibrotic markers relative to the other compounds [1] | secretion of CCL18 protein [3] | further results
Nc1nc2ncc(CNc3ccc(C(=O)N[C@@H](CCC(=O)NCCOCCOCCOCCOCCOCCOCCOCCOCCOCCOCCOCCOCCOCC4CCCN(CCNc5ccc(Cn6c(=O)[nH]c7c(N)nc(C(F)(F)F)cc76)cn5)C4)C(=O)O)cc3)nc2c(=O)[nH]1 (some centres unmarked) [Compound 3C] | reduced | reduced | reduced | most effective relative to the other compounds | downregulated | benefit to the subject mice [2]: did not show measurable benefit; hydroxyproline (HP) [2]: decreasing; number of BALF cells [2]: decreasing; survival rates [2]: increased the survival rates
Nc1nc2ncc(CNc3ccc(C(=O)N[C@@H](CCC(=O)NCCOCCOCCOCCOCC4CCCN(CCNc5ccc(Cn6c(=O)[nH]c7c(N)nc(C(F)(F)F)cc76)cn5)C4)C(=O)O)cc3)nc2c(=O)[nH]1 (some centres unmarked) [Compound 3D] | reduced | reduced | reduced | most effective relative to the other compounds | downregulated | –
Nc1nc2ncc(CNc3ccc(C(=O)NC(CCC(=O)N[C@@H](CSSCCOC(=O)OCC4CCCN(CCNc5ccc(Cn6c(=O)[nH]c7c(N)nc(C(F)(F)F)cc76)cn5)C4)C(=O)O)C(=O)O)cc3)nc2c(=O)[nH]1 (some centres unmarked) [Compound 3B] | reduced | reduced | reduced | – | downregulated | –
Nc1nc(C(F)(F)F)cc2c1[nH]c(=O)n2Cc1ccc(NCCN2CCCC(CO)C2)nc1 (centres unmarked) [Compound 3A] | – | – | – | – | downregulated | –
CCCCc1nc2c(N)nc3ccccc3c2n1CC(C)(C)O [Compound 1A, 1-(4-Amino-2-butyl-1H-imidazo[4,5-c]quinolin-1-yl)-2-methylpropan-2-ol] | – | – | – | – | – | body weight change [2]: rapid body weight loss followed by death
OTL38 | – | – | – | – | – | OTL38 fluorescence in organs of healthy mice [4]: only observed in the kidneys; lung accumulation with 200-fold excess folate-glucosamine [4]: nearly quantitative blockade of lung accumulation; folate-dye retention with 200-fold excess folate-glucosamine [5]: blocked essentially all folate-dye retention
